Measured values reported in article PMC10287566, “Signaling-specific inhibition of the CB1 receptor for cannabis use disorder: phase 1 and phase 2a randomized trials” (Nature Medicine, 2023).

What was measured:
[1] = test system: mice; experiment: THC-induced increase in psychomotor stimulation (open field); type: in vivo
[2] = test system: volunteers with CUD; experiment: Phase 2a study, subjective effects of smoked cannabis (VAS, CRF); type: in vivo, human; conditions: for reduction of cannabis' positive subjective effects compared to placebo: Phase 2a
Experimental: Participants, in groups of 3−4, completed two 5-d inpatient periods (first period ‘A’ and second period ‘B’) separated by a ≥ 14-d outpatient washout. During the two testing periods, participants received AEF0117 or matching placebo in counterbalanced order (two dosing sequences: AEF0117 first or placebo first). Participants took capsules at 9:00 each day and then smoked a controlled amount of cannabis (approximately 67 mg of THC smoked over 6 min) 3.5 h later (12:30). Ratings of the subjective effects of cannabis were done five times after cannabis administration (20 min, 40 min, 60 min, 90 min and 120 min after cannabis) using a VAS (0–100 mm). […] Participants were told that the cannabis strength could vary from day to day and between participants but that the cannabis they each received at 12:30 that day was the strength available for self-administration that day.
The primary endpoint measuring the good subjective effect of cannabis related to addiction was an ‘Intoxication’ subscale based on a cluster analysis of the 44-item VAS[22], comprising the arithmetic mean of two items: ‘I feel a Good Effect’ and ‘I feel High’[22]. The positive subjective effects of cannabis were further assessed by individual items on the Cannabis Rating Form (CRF)[23], where participants rated the cannabis that they had most recently smoked in terms of ‘Cannabis Cigarette Liking’ and ‘Felt Good Cannabis Effect’ (key secondary endpoints) using a VAS. Cannabis self-administration was evaluated by measuring the number of puffs purchased at each timepoint (key secondary endpoint).
Data from the first dose level were reviewed by the Data Safety Monitoring Board before ascending to the next dose level.
Ratings of subjective effects of cannabis were performed using multiple items from two different instruments: (1) the 44-item VAS[22] and (2) the CRF[23]. Both instruments used visual analog scales (from 0 mm to 100 mm) to measure subjective effects. […] The subscale of the 44-item VAS was initially named the ‘Good Cannabis Effect’ subscale. Before starting the statistical analysis, this subscale was renamed ‘Intoxication’ subscale to avoid confusion with a key secondary endpoint on the CRF labeled ‘Felt Good Cannabis Effect’.
On each study day (days 1–5), at approximately 12:30, participants received an experimenter-administered ‘sample’ of cannabis (two cannabis cigarettes of approximately 800 mg, 7% THC, provided by NIDA). They were guided by an investigator through smoking a total of six 5-s inhalations using a paced-puff smoking procedure, where inhalation duration, time spent holding smoke in the lungs and inter-puff interval were timed. […] To capture a full timecourse of cannabis effects, participants completed the 44-item VAS and a CRF at 12:50, 13:10, 13:30, 14:[…].
As specified in the SAP, the statistical analyses employed an MMRM analysis using the REML as estimation method and structured covariance matrix with compound symmetry; the model included as factors and covariates: sequence, dose, treatment, time and days as fixed effects and subject within sequence as random effect.
Based on the SAP, the following analytical steps depending on results of the various analyses were undertaken. The primary and key secondary endpoints were first analyzed with a global crossover MMRM analysis (using combined cohorts: 0.06 mg + 1 mg).

[3] = GLP mutagenic and genotoxic studies (Ames, chromosome aberration, micronucleus); conditions: GLP in vitro and in vivo studies
Experimental: The dose of 816 µg per plate is approximately a concentration of 84 µM.
Human lymphocytes were taken from young (18–35 years old) healthy non-smoker individuals.
This assay was carried out both with and without metabolic activation using Aroclor 1254-induced S9 from rat livers (5%). In the test performed without metabolic activation, two treatment durations were studied: (1) 4 h + 16 h recovery period (short-term treatment) and (2) 20 h without recovery period (continuous treatment). In the test performed with metabolic activation, the treatment period of 4 h + 16 h recovery period with 5% S9 mix was used.
As a control for the genotoxicity induction, a single i.p. injection 24 h before sampling of the reference substance cyclophosphamide (CPA, Baxter, batch 5K044J in NaCl at 0.9% in distilled water, at a dose of 25 mg kg^−1 under a volume of 10 ml kg^−1) was used.

[4] = Increase in psychomotor stimulation
[5] = global crossover, 0.06 mg, 20 min after THC
[6] = global crossover, 0.06 mg, 40 min after THC
[7] = global crossover, 0.06 mg, 60 min after THC
[8] = global crossover, 0.06 mg, 90 min after THC
[9] = global crossover, 0.06 mg, 105 min after THC
[10] = global crossover, 1 mg, 20 min after THC
[11] = global crossover, 1 mg, 40 min after THC
[12] = global crossover, 1 mg, 60 min after THC
[13] = global crossover, 1 mg, 90 min after THC
[14] = global crossover, 1 mg, 105 min after THC
[15] = parallel group (period A), 0.06 mg, 20 min after THC
[16] = parallel group (period A), 0.06 mg, 40 min after THC
[17] = parallel group (period A), 0.06 mg, 60 min after THC
[18] = parallel group (period A), 0.06 mg, 90 min after THC
[19] = parallel group (period A), 0.06 mg, 105 min after THC
[20] = parallel group (period A), 1 mg, 20 min after THC
[21] = parallel group (period A), 1 mg, 40 min after THC
[22] = parallel group (period A), 1 mg, 60 min after THC
[23] = parallel group (period A), 1 mg, 90 min after THC
[24] = parallel group (period A), 1 mg, 105 min after THC

COc1ccc(CO[C@H]2CC[C@@]3(C)C(=CC[C@H]4[C@@H]5CC[C@H](C(C)=O)[C@@]5(C)CC[C@@H]43)C2)cc1 [AEF0117, 3β-(4-methoxybenzyloxy)pregn-5-en-20-one]
THC-increased psychomotor stimulation [1]: inhibited
% Inhibition [1, 4]: 100%
ID50 [1, 4]: 0.36 µg/kg
ID100 [1, 4]: 1.5 µg/kg
cannabis ratings ([2]; 0.06 mg, parallel group analysis, period A): significant reduction
'Felt Good Cannabis Effect' item on the CRF ([2]; 1 mg, global crossover MMRM): significantly reduced
ratings on the 'Intoxication' subscale of the 44-item VAS ([2]; 1 mg, global crossover MMRM): significantly reduced
reduction of cannabis' positive subjective effects compared to placebo ([2]; 0.06 mg): 19%
reduction of cannabis' positive subjective effects compared to placebo ([2]; 1 mg): 38%
Cannabis cigarette liking item, mean [2, 5]: 76.2 mm
Felt good cannabis effect item, mean [2, 5]: 77.9 mm
Intoxication subscale, mean [2, 5]: 63.7 mm
Cannabis cigarette liking item, mean [2, 6]: 74.9 mm
Felt good cannabis effect item, mean [2, 6]: 76.1 mm
Intoxication subscale, mean [2, 6]: 58.8 mm
Cannabis cigarette liking item, mean [2, 7]: 72.6 mm
Felt good cannabis effect item, mean [2, 7]: 72.7 mm
Intoxication subscale, mean [2, 7]: 53.9 mm
Cannabis cigarette liking item, mean [2, 8]: 73.5 mm
Felt good cannabis effect item, mean [2, 8]: 75.8 mm
Intoxication subscale, mean [2, 8]: 47.1 mm
Cannabis cigarette liking item, mean [2, 9]: 73.2 mm
Felt good cannabis effect item, mean [2, 9]: 75.0 mm
Intoxication subscale, mean [2, 9]: 44.4 mm
Cannabis cigarette liking item, mean [2, 10]: 61.7 mm
Felt good cannabis effect item, mean [2, 10]: 66.8 mm
Intoxication subscale, mean [2, 10]: 66.8 mm
Cannabis cigarette liking item, mean [2, 11]: 57.8 mm
Felt good cannabis effect item, mean [2, 11]: 62.4 mm
Intoxication subscale, mean [2, 11]: 61.5 mm
Cannabis cigarette liking item, mean [2, 12]: 54.8 mm
Felt good cannabis effect item, mean [2, 12]: 58.0 mm
Intoxication subscale, mean [2, 12]: 57.2 mm
Cannabis cigarette liking item, mean [2, 13]: 54.0 mm
Felt good cannabis effect item, mean [2, 13]: 56.1 mm
Intoxication subscale, mean [2, 13]: 48.2 mm
Cannabis cigarette liking item, mean [2, 14]: 54.4 mm
Felt good cannabis effect item, mean [2, 14]: 54.7 mm
Intoxication subscale, mean [2, 14]: 43.7 mm
Cannabis cigarette liking item, mean [2, 15]: 68.3 mm
Felt good cannabis effect item, mean [2, 15]: 73.0 mm
Intoxication subscale, mean [2, 15]: 57.1 mm
Cannabis cigarette liking item, mean [2, 16]: 65.5 mm
Felt good cannabis effect item, mean [2, 16]: 70.2 mm
Intoxication subscale, mean [2, 16]: 50.9 mm
Cannabis cigarette liking item, mean [2, 17]: 62.3 mm
Felt good cannabis effect item, mean [2, 17]: 65.7 mm
Intoxication subscale, mean [2, 17]: 44.4 mm
Cannabis cigarette liking item, mean [2, 18]: 61.8 mm
Felt good cannabis effect item, mean [2, 18]: 67.4 mm
Intoxication subscale, mean [2, 18]: 38.0 mm
Cannabis cigarette liking item, mean [2, 19]: 63.1 mm
Felt good cannabis effect item, mean [2, 19]: 68.2 mm
Intoxication subscale, mean [2, 19]: 37.8 mm
Cannabis cigarette liking item, mean [2, 20]: 63.9 mm
Felt good cannabis effect item, mean [2, 20]: 67.9 mm
Intoxication subscale, mean [2, 20]: 67.0 mm
Cannabis cigarette liking item, mean [2, 21]: 59.3 mm
Felt good cannabis effect item, mean [2, 21]: 60.6 mm
Intoxication subscale, mean [2, 21]: 58.9 mm
Cannabis cigarette liking item, mean [2, 22]: 54.5 mm
Felt good cannabis effect item, mean [2, 22]: 53.3 mm
Intoxication subscale, mean [2, 22]: 54.5 mm
Cannabis cigarette liking item, mean [2, 23]: 55.7 mm
Felt good cannabis effect item, mean [2, 23]: 50.7 mm
Intoxication subscale, mean [2, 23]: 45.5 mm
Cannabis cigarette liking item, mean [2, 24]: 55.9 mm
Felt good cannabis effect item, mean [2, 24]: 52.3 mm
Intoxication subscale, mean [2, 24]: 40.8 mm
genotoxic or mutagenic activity [3]: did not show any genotoxic or mutagenic activity
